The subject of experiment [1] is MDA-MB-231 breast cancer cell line. The settings on record: read-out: MDA-MB-231 IC50; MDA-MB-231 cells, 72 h incubation, MTS readout.
Experiment [2] relates to HMLE breast cancer cell line. Conditions: for pIC50: read-out: HMLE IC50.
Experiment [3] has as its system MDA-MB-231 breast cancer cell line. Description: cells. The settings on record: Homo sapiens, MDA-MB-231, 72 h, read-out: MDA-MB-231 IC50.

pIC50: −log10 of the molar value. Where two headings read alike, the source gives them in different places.

Consider `CN[C@@H]1C[C@H]2O[C@@](C)([C@@H]1OC)n1c3ccc(O)cc3c3c4c(c5c6ccccc6n2c5c31)C(=O)NC4` [Compound 13, 9-OH staurosporine], for which the pIC50 in experiment [1] was 8.70. For the same compound, in experiment [2], the “fold less active/potent than staurosporine against HMLE cell line” value came to 5.6 fold and the pIC50 was 7.56.

With `CN[C@@H]1C[C@H]2O[C@@](C)([C@@H]1OC)n1c3cc(O)ccc3c3c4c(c5c6ccccc6n2c5c31)C(=O)NC4` [Compound 14, 10-OH staurosporine], in experiment [1], the pIC50 was 8.47. Moreover, in experiment [2], the “fold less active/potent than staurosporine against HMLE cell line” value is reported as 12.0 fold and the pIC50 was 7.23.

With `CN[C@@H]1C[C@H]2O[C@@](C)([C@@H]1OC)n1c3ccccc3c3c4c(c5c6ccccc6n2c5c31)C(=O)NC4` [Staurosporine], the pIC50 in experiment [3] was 8.60.
